Source: ChEMBL document CHEMBL4303101, “Identification of inhibitors of SARS-CoV-2 in-vitro cellular toxicity in human (Caco-2) cells using a large scale drug repurposing collection” (2020)

How the values were obtained:
[1] = in vitro; conditions: human
[2] = system: SARS-CoV-2; experiment: microbe, parasite or virus in culture; conditions: Severe acute respiratory syndrome coronavirus 2, Caco-2, 48 h
[3] = in vitro; conditions: human, Caco-2 cells
[4] = system: SARS-CoV-2; conditions: Homo sapiens; Caco-2; 10 uM
[5] = system: Caco-2; conditions: human, caco-2, 48 h
[6] = system: SARS-CoV-2; conditions: caco-2

| Molecule | selectivity ratio ([1]; Caco-2 cells) | IC50 [2] [µM] | CC50 at 48 h [3] [µM] | inhibition [4] [%] | also measured |
| --- | --- | --- | --- | --- | --- |
| C/C=C/C[C@@H](C)[C@@H](O)[C@H]1C(=O)N[C@@H](CC)C(=O)N(C)[C@H](C)C(=O)N(CC)[C@@H](C(C)C)C(=O)N[C@@H](C(C)C)C(=O)N(C)[C@@H](CC(C)C)C(=O)N[C@@H](C)C(=O)N[C@H](C)C(=O)N(C)[C@@H](CC(C)C)C(=O)N(C)[C@@H](CC(C)C)C(=O)N(C)[C@@H](C(C)C)C(=O)N1C [ALISPORIVIR] | > 6 | 3.1 | > 20 |  |  |
| CC1=C(CCC(=O)O)c2cc3nc(cc4[nH]c(cc5[nH]c(cc1n2)c(C)c5C(C)O)c(C)c4C(C)O)C(C)=C3CCC(=O)O (stereo unspecified) [HAEMAPORPHYRIN] |  |  | 160 |  |  |
| CCOC(=O)c1ncc2[nH]c3ccc(OCc4ccccc4)cc3c2c1COC | 1 | 1.34 | 0.91 |  |  |
| COc1cc2ncc(-c3ccccc3)nc2cc1OC |  | 0.2 | 1.36 |  |  |
| CC(C)(C)c1ccc(/C=C/C(=O)Nc2ccc3c(c2)OCCO3)cc1 | 1 | 15 | 14.2 |  |  |
| Nc1nc2c(ncn2[C@@H]2O[C@H](CO)[C@@H](O)[C@H]2O)c(=S)[nH]1 [THIOGUANOSINE] | 1 | 0.78 | 0.63 |  |  |
| CETRIMONIUM BROMIDE |  |  |  | 55.1 |  |
| Cn1cc(-c2ccc3c(c2)CCN3C(=O)Cc2cccc(C(F)(F)F)c2)c2c(N)ncnc21 | > 100 | 0.25 | 70.4 |  |  |
| GADOTERIDOL |  |  |  | 2.66 |  |
| CCCC[C@@]1(C2CCCC2)Cc2cc(OCCCC(=O)O)c(Cl)c(Cl)c2C1=O | 2 | 12.8 | 24.6 |  |  |
| ACRIFLAVINE HYDROCHLORIDE |  |  |  | 69.4 |  |
| C=C(c1ccccc1OCc1cccc(Cl)c1)n1ccnc1 [CROCONAZOLE] | 2 | 18.9 | 33 |  |  |
| COC(=O)C[C@@](O)(CCC(C)(C)O)C(=O)O[C@@H]1C(OC)=C[C@]23CCCN2CCc2cc4c(cc2[C@@H]13)OCO4 |  | 19 | 0.07 |  |  |
| NYSTATIN |  |  |  | -4.11 |  |
| AUROTHIOGLUCOSE |  |  |  | 2.42 |  |
| Cc1nn(C)c2nc(NNC(=O)Nc3cc(Cl)nc(Cl)c3)cc(C(C)C)c12 | 3 | 5.97 | 16.4 |  |  |
| PHENYLMERCURIC ACETATE |  |  |  | 9.11 |  |
| THIMEROSAL |  |  |  |  | CC50 [5]: 13.5 µM; IC50 [6]: 1.69 µM |

| Molecule | selectivity ratio ([1]; Caco-2 cells) | IC50 [2] [µM] | CC50 at 48 h [3] [µM] | inhibition [4] [%] | also measured |
| --- | --- | --- | --- | --- | --- |
| N=C(Nc1ccc(I)cc1)NC1C2CC3CC(C2)CC1C3 (stereo unspecified) | 2 | 5.96 | 11.5 |  |  |
| AURANOFIN |  |  |  | 12.8 |  |
| CCCCCCCCCCCCOCCOCCOCCOCCOCCOCCOCCOCCOCCO |  | 0.22 | 10.3 |  |  |
| SODIUM ORTHOVANADATE |  |  |  | 1.6 |  |
| CYANOCOBALAMIN |  |  |  | 40.4 |  |
| CC(=O)OC[C@]12CCC(C)=C[C@H]1O[C@@H]1[C@H](O)[C@@H](OC(C)=O)[C@@]2(C)[C@@]12CO2 |  |  |  | 35 |  |
| TOCOFERSOLAN |  |  |  | 95.2 |  |
| ESCIN |  |  |  | -9.26 |  |
| Cc1cc(Nc2cc(N3CCN(C)CC3)nc(Sc3ccc(NC(=O)C4CC4)cc3)n2)n[nH]1 |  |  |  | -0.85 |  |
| CCS(=O)(=O)N(Cc1cccnc1)c1cccc(-c2ccc(C#N)cc2)c1 | 1 | 17.1 | 13.4 |  |  |
| CCCCCCCCCCCCCCCCCC[S+](CCC)c1ccccc1C(=O)OCC (stereo unspecified) | 1 | 0.77 | 0.89 |  |  |
| VITAMIN B12 |  |  |  | -8.31 |  |
| COLISTIMETHATE SODIUM |  |  |  | -7.44 |  |
| C/C(=N\NC(=S)N1CCC1)c1ccccn1 | 1 | < 0.02 | < 0.02 |  |  |
| Cc1cccc2c1CC[C@H](CN1CCC(c3c(Cl)cccc3Cl)CC1)C[C@@H]2O | 5 | 0.77 | 3.67 |  |  |
| FC(F)(F)Oc1ccc2nc(-c3ccc(OCCOCCOc4ccc(-c5nc6ccc(OC(F)(F)F)cc6[nH]5)nc4)cn3)[nH]c2c1 | 35 | 0.19 | 6.58 |  |  |
| Nc1nccc(-c2c(-c3ccc(F)cc3)ncn2C2CCCCC2)n1 |  | 19.2 | 8.24 |  |  |
| CCC(CC)COC(=O)[C@H](C)N[P@](=O)(OC[C@H]1O[C@@](C#N)(c2ccc3c(N)ncnn23)[C@H](O)[C@@H]1O)Oc1ccccc1 |  | 0.76 | 2580 |  | selectivity ratio ([1]; caco-2): 3400 |
